According to US12702648B2 (priority 2023, dated 2026):
Values after ≈ are worked out from the molar mass of the structure shown.

Legend:
Type in all cases: cell-based
[1] = tested on: human kidney 293T cells; assay: In vitro cytotoxicity test (MTS), 293T; settings: 72 h incubation, AmB concentration
Experimental: (§1) In vitro cytotoxicity test: The cytotoxicity of TDs and AmB loaded nanoparticles (NPs) were studied using murine macrophage-like RAW 264.7 cells and human kidney 293T cells via MTS assays. Briefly, cells were seeded in 96-well plates at a density of 6×10^3 (RAW 264.7) and 3×10^3 (293T) cells per well and incubated overnight (Dulbecco's modified Eagle's medium (DMEM) medium, 5% CO2, 37° C.). TDs or AmB nanoformulations with different concentrations were added into each well to treat the cells. After 72 h incubation, CellTiter 96 AQueous MTS reagent was added to each well according to the manufacturer's instructions. The cell viability was determined by measuring the absorbance at 490 nm using a microplate reader (BioTek Synergy H1) with the untreated cells as negative controls. Results were obtained as the average cell viability of triplicate experiments calculated by a formula of [(ODtreat−ODblank)/(ODcontrol−ODblank)×100%]. Statistical analysis: Statistical analysis was carried out using GraphPad Prism (GraphPad Software, California, USA). One-way analyses of variance (ANOVA) was used for two-group and multiple-group analyses. […] The half maximal inhibitory concentration (IC50) was calculated by nonlinear regression analysis ([Inhibitor] vs. response—Variable slope (four parameters)). The half-life was determined by nonlinear regression analysis (one-phase association).

[2] = tested on: C. albicans (ATCC 10231); assay: In vitro antifungal activity (MIC, dilution method); settings: 5×10^6 cells/mL, 24 h at 25° C.
Experimental: In vitro antifungal activity: In order to study the influence of encapsulation of AmB in TDs on the antifungal activity of the drug, the minimal inhibitory concentration (MIC), defined as the lowest concentration inhibiting clearly visible growth of the fungi, was determined by dilution method. The antifungal agents were tested at AmB final concentration range of 0.0125-5 μg/mL. The testing was performed in 96-well plates. Cell suspensions of C. albicans were prepared in Sabouraud's broth and adjusted to a final concentration of 5×10^6 cells/mL (fungal count determined by microscopic counts on a hemocytometer). The 96-well plate was incubated for 24 h at 25° C. and record the lowest concentration of AmB that prevented visible growth of C. albicans.

[3] = tested on: murine macrophage-like RAW 264.7 cells; assay: In vitro cytotoxicity test (MTS), RAW 264.7; settings: 72 h incubation, AmB concentration
Experimental: as §1

## C[C@@H]1[C@H](O)[C@@H](C)/C=C/C=C/C=C/C=C/C=C/C=C/C=C/[C@H](O[C@@H]2O[C@H](C)[C@@H](O)[C@H](N)[C@@H]2O)C[C@@H]2O[C@](O)(C[C@@H](O)C[C@@H](O)[C@H](O)CC[C@@H](O)C[C@@H](O)CC(=O)O[C@H]1C)C[C@H](O)[C@H]2C(=O)O [free AmB, Amphotericin B]
[1]
  IC50 (cytotoxicity) to 293T: 4.3 µg/mL
[2]
  MIC (minimum inhibitory concentration): 0.05 µg/mL (≈ 0.0541 µM)
[3]
  IC50 (cytotoxicity) to RAW 264.7: 1.8 µg/mL
